Data taken from ChEMBL document CHEMBL1201862, “PubChem BioAssay data set” (2004).
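The compound was tested at five concentrations on cells cultured in 96-well plates, with a 48-hour exposure period. At the GI50, growth is halved.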 Active and inactive are the calls of the source. No stated cut-off is given here; in the data, active = GI50 up to about 1.1 µM and inactive = higher.

Columns and labels:
Experiment in all cases: inhibition of tumour cell growth, NCI panel, 48 h
OVCAR-5 = tested on: OVCAR-5
HT-29 = tested on: HT-29
LOX IMVI = tested on: LOX IMVI
NCI-H23 = tested on: NCI-H23
SR = tested on: SR
NCI-H226 = tested on: NCI-H226
SNB-75 = tested on: SNB-75
DLD-1 = tested on: DLD-1
HCT-116 = tested on: HCT-116
KM12 = tested on: KM12
MOLT-4 = tested on: MOLT-4
OVCAR-4 = tested on: OVCAR-4
DMS-273 = tested on: DMS-273
LXFL 529 = tested on: LXFL 529
DMS-114 = tested on: DMS-114
Malme-3M = tested on: Malme-3M
SN12C = tested on: SN12C
SF-268 = tested on: SF-268
U-251 = tested on: U-251
UACC-257 = tested on: UACC-257
NCI-H460 = tested on: NCI-H460
NCI-H522 = tested on: NCI-H522
SK-MEL-5 = tested on: SK-MEL-5
SK-OV-3 = tested on: SK-OV-3
UO-31 = tested on: UO-31
HOP-92 = tested on: HOP-92
CCRF-CEM = tested on: CCRF-CEM
IGROV-1 = tested on: IGROV-1
COLO 205 = tested on: COLO 205
M14 = tested on: M14
SK-MEL-2 = tested on: SK-MEL-2
UACC-62 = tested on: UACC-62
RXF 393 = tested on: RXF 393
HCT-15 = tested on: HCT-15
OVCAR-8 = tested on: OVCAR-8
CAKI-1 = tested on: CAKI-1
786-0 = tested on: 786-0
M19-MEL = tested on: M19-MEL
K562 = tested on: K562
SK-MEL-28 = tested on: SK-MEL-28
SF-295 = tested on: SF-295
RPMI-8226 = tested on: RPMI-8226
SF-539 = tested on: SF-539
HL-60 = tested on: HL-60
HOP-62 = tested on: HOP-62
SW-620 = tested on: SW-620
ACHN = tested on: ACHN
TK-10 = tested on: TK-10
HOP-18 = tested on: HOP-18
A549 = tested on: A549
HCC 2998 = tested on: HCC 2998
KM-20L2 = tested on: KM-20L2
A498 = tested on: A498
SNB-78 = tested on: SNB-78
SNB-19 = tested on: SNB-19
OVCAR-3 = tested on: OVCAR-3

With `[N-]=[N+]=NC1(Cc2ccccc2)C(=O)c2cccc3c2N(CCC3)C1=O` (stereo unspecified) the GI50 (OVCAR-5) was > 100 µM (inactive), the GI50 (HT-29) was > 100 µM (inactive) and the GI50 (LOX IMVI) was > 100 µM (inactive). The GI50 (NCI-H23) was > 100 µM (inactive), the GI50 (SR) was > 100 µM (inactive) and the GI50 (NCI-H226) was > 100 µM (inactive). The GI50 (SNB-75) was > 100 µM (inactive), the GI50 (DLD-1) was > 100 µM (inactive) and the GI50 (HCT-116) was > 100 µM (inactive). The GI50 (KM12) was > 100 µM (inactive), the GI50 (MOLT-4) was > 100 µM (inactive) and the GI50 (OVCAR-4) was > 100 µM (inactive). For the same molecule, the GI50 (DMS-273) was > 100 µM (inactive), the GI50 (LXFL 529) was > 100 µM (inactive) and the GI50 (DMS-114) was > 100 µM (inactive). For the same molecule, the GI50 (Malme-3M) was > 100 µM (inactive), the GI50 (SN12C) was > 100 µM (inactive) and the GI50 (SF-268) was > 100 µM (inactive). For the same molecule, the GI50 (U-251) was > 100 µM (inactive), the GI50 (UACC-257) was > 100 µM (inactive) and the GI50 (NCI-H460) was > 100 µM (inactive). The GI50 (NCI-H522) was > 100 µM (inactive), the GI50 (SK-MEL-5) was > 100 µM (inactive) and the GI50 (SK-OV-3) was 40.3 µM (inactive). For the same molecule, the GI50 (UO-31) was > 100 µM (inactive), the GI50 (HOP-92) was > 100 µM (inactive) and the GI50 (CCRF-CEM) was > 100 µM (inactive). The GI50 (IGROV-1) was > 100 µM (inactive), the GI50 (COLO 205) was > 100 µM (inactive) and the GI50 (M14) was > 100 µM (inactive). The GI50 (SK-MEL-2) was > 100 µM (inactive), the GI50 (UACC-62) was > 100 µM (inactive) and the GI50 (RXF 393) was > 100 µM (inactive). The GI50 (HCT-15) was over 100 µM, the GI50 (OVCAR-8) was > 100 µM (inactive) and the GI50 (CAKI-1) was > 100 µM (inactive). The GI50 (786-0) was > 100 µM (inactive), the GI50 (M19-MEL) was > 100 µM (inactive) and the GI50 (K562) was > 100 µM (inactive). For the same molecule, the GI50 (SK-MEL-28) was > 100 µM (inactive), the GI50 (SF-295) was > 100 µM (inactive) and the GI50 (RPMI-8226) was > 100 µM (inactive). The GI50 (SF-539) was > 100 µM (inactive), the GI50 (HL-60) was > 100 µM (inactive) and the GI50 (HOP-62) was > 100 µM (inactive). The GI50 (SW-620) was > 100 µM (inactive), the GI50 (ACHN) was > 100 µM (inactive) and the GI50 (TK-10) was > 100 µM (inactive). For the same molecule, the GI50 (HOP-18) was > 100 µM (inactive) and the GI50 (A549) was > 100 µM (inactive).

`CC(NC(=O)c1ccccc1)C(=O)N(Cc1ccccc1)Cc1ccccc1` (stereo unspecified) was tested, and the GI50 (OVCAR-5) was 33 µM (inactive), the GI50 (HCC 2998) was 35.6 µM (inactive) and the GI50 (HT-29) was 37.1 µM (inactive). The GI50 (LOX IMVI) was 22.1 µM (inactive), the GI50 (NCI-H23) was 24.5 µM (inactive) and the GI50 (SR) was 29.9 µM (inactive). The GI50 (NCI-H226) was 23.4 µM (inactive), the GI50 (SNB-75) was > 100 µM (inactive) and the GI50 (DLD-1) was 31.4 µM (inactive). For the same molecule, the GI50 (HCT-116) was 25.2 µM (inactive), the GI50 (KM12) was 26.6 µM (inactive) and the GI50 (MOLT-4) was 14.1 µM (inactive). For the same molecule, the GI50 (OVCAR-4) was 31.2 µM (inactive), the GI50 (DMS-273) was 21.3 µM (inactive) and the GI50 (LXFL 529) was 18.4 µM (inactive). The GI50 (DMS-114) was 19 µM (inactive), the GI50 (Malme-3M) was 24.5 µM (inactive) and the GI50 (SN12C) was 37.4 µM (inactive). The GI50 (SF-268) was 35.4 µM (inactive), the GI50 (U-251) was 29.8 µM (inactive) and the GI50 (UACC-257) was 40.2 µM (inactive). The GI50 (NCI-H460) was 27.4 µM (inactive), the GI50 (NCI-H522) was 23.7 µM (inactive) and the GI50 (SK-MEL-5) was 22.5 µM (inactive). The GI50 (SK-OV-3) was 33.7 µM (inactive), the GI50 (UO-31) was 27.5 µM (inactive) and the GI50 (HOP-92) was 23.6 µM (inactive). The GI50 (CCRF-CEM) was 21.6 µM (inactive), the GI50 (IGROV-1) was 34 µM (inactive) and the GI50 (COLO 205) was 19.2 µM (inactive). The GI50 (M14) was 21 µM (inactive), the GI50 (KM-20L2) was 26.2 µM (inactive) and the GI50 (SK-MEL-2) was 20.7 µM (inactive). The GI50 (UACC-62) was 16.4 µM (inactive), the GI50 (RXF 393) was 26.5 µM (inactive) and the GI50 (HCT-15) was 32.1 µM. For the same molecule, the GI50 (CAKI-1) was 34.9 µM (inactive), the GI50 (786-0) was 37.6 µM (inactive) and the GI50 (M19-MEL) was 24.4 µM (inactive). For the same molecule, the GI50 (K562) was 15.3 µM (inactive), the GI50 (A498) was 25.6 µM (inactive) and the GI50 (SK-MEL-28) was 25.7 µM (inactive). For the same molecule, the GI50 (SF-295) was 27.4 µM (inactive), the GI50 (RPMI-8226) was 21 µM (inactive) and the GI50 (SF-539) was 55.3 µM (inactive). For the same molecule, the GI50 (HOP-62) was 25.1 µM (inactive), the GI50 (SW-620) was 51.1 µM (inactive) and the GI50 (SNB-78) was 27.7 µM (inactive). The GI50 (ACHN) was 31.7 µM (inactive), the GI50 (TK-10) was 60.1 µM (inactive) and the GI50 (SNB-19) was 36.1 µM (inactive). For the same molecule, the GI50 (A549) was 30.2 µM (inactive).

`CCO[C@@H]1OC(=O)[C@](C)(C(C)=O)[C@@H]1C` was tested, and the GI50 (OVCAR-5) was > 100 µM (inactive), the GI50 (HT-29) was 68.4 µM (inactive) and the GI50 (NCI-H23) was 16.8 µM (inactive). For the same molecule, the GI50 (SR) was 27.9 µM (inactive), the GI50 (SNB-75) was 0.21 µM (active) and the GI50 (KM12) was > 100 µM (inactive). For the same molecule, the GI50 (MOLT-4) was 23.3 µM (inactive), the GI50 (OVCAR-4) was 71.9 µM (inactive) and the GI50 (LXFL 529) was 40.6 µM (inactive). The GI50 (DMS-114) was 37.2 µM (inactive), the GI50 (SF-268) was 14.7 µM (inactive) and the GI50 (U-251) was 34.4 µM (inactive). The GI50 (UACC-257) was > 100 µM (inactive), the GI50 (NCI-H460) was > 100 µM (inactive) and the GI50 (NCI-H522) was > 100 µM (inactive). The GI50 (SK-OV-3) was 59 µM (inactive), the GI50 (UO-31) was > 100 µM (inactive) and the GI50 (HOP-92) was 27.5 µM (inactive). The GI50 (CCRF-CEM) was 14.7 µM (inactive), the GI50 (IGROV-1) was > 100 µM (inactive) and the GI50 (COLO 205) was > 100 µM (inactive). For the same molecule, the GI50 (M14) was 67 µM (inactive), the GI50 (KM-20L2) was > 100 µM (inactive) and the GI50 (SK-MEL-2) was 55.2 µM (inactive). The GI50 (UACC-62) was 57.8 µM (inactive), the GI50 (RXF 393) was 41.5 µM (inactive) and the GI50 (M19-MEL) was 58.1 µM (inactive). For the same molecule, the GI50 (K562) was 44.2 µM (inactive), the GI50 (A498) was > 100 µM (inactive) and the GI50 (SK-MEL-28) was 37.5 µM (inactive). The GI50 (SF-295) was 36.8 µM (inactive), the GI50 (RPMI-8226) was 18.8 µM (inactive) and the GI50 (SF-539) was 23.1 µM (inactive). The GI50 (HL-60) was 17.9 µM (inactive), the GI50 (HOP-62) was 43.2 µM (inactive) and the GI50 (OVCAR-3) was 29 µM (inactive). The GI50 (SNB-78) was 33.7 µM (inactive), the GI50 (ACHN) was > 100 µM (inactive) and the GI50 (SNB-19) was 75.3 µM (inactive).
